Assay results reported in BigSolDB 2.1.

Nc1ccccc1C(=O)O
Details	solubility (mole fraction)
in 1,4-dioxane, 295.65 K	0.251
in 1,4-dioxane, 304.55 K	0.275
in 1,4-dioxane, 308.35 K	0.287
in 1,4-dioxane, 320.85 K	0.334
in 1,4-dioxane, 324.85 K	0.338
in cyclopentyl methyl ether, 297.85 K	0.137
in cyclopentyl methyl ether, 308.45 K	0.155
in cyclopentyl methyl ether, 315.55 K	0.171
in cyclopentyl methyl ether, 325.25 K	0.194
in cyclopentyl methyl ether, 334.25 K	0.223
in toluene, 295.55 K	0.007
in toluene, 306.95 K	0.012
in toluene, 308.85 K	0.013
in toluene, 312.65 K	0.015
in toluene, 316.75 K	0.018
in toluene, 322.25 K	0.024
in toluene, 325.95 K	0.026
in toluene, 326.05 K	0.026

Nc1ccc(C(=O)O)cc1
in 1,4-dioxane
Details	solubility (mole fraction)
298.25 K	0.068
301.25 K	0.073
304.65 K	0.08
311.55 K	0.094
317.75 K	0.108
320.65 K	0.116
324.85 K	0.127
326.35 K	0.131

O=C(O)c1ccc([N+](=O)[O-])cc1
in 1,4-dioxane
Details	solubility (mole fraction)
296.95 K	0.036
303.25 K	0.048
306.25 K	0.053
310.85 K	0.062
314.65 K	0.07
319.35 K	0.08

NC(=O)c1cccnc1
in 1,4-dioxane
Details	solubility (mole fraction)
307.25 K	0.025
309.95 K	0.027
311.55 K	0.029
313.35 K	0.031
315.45 K	0.033

O=C(O)c1ccccc1O
Details	solubility (mole fraction)
in 1,4-dioxane, 316.85 K	0.323
in 1,4-dioxane, 321.55 K	0.337
in 1,4-dioxane, 325.55 K	0.35
in 1,4-dioxane, 330.85 K	0.365
in cyclopentyl methyl ether, 316.75 K	0.252
in cyclopentyl methyl ether, 322.85 K	0.264
in cyclopentyl methyl ether, 330.55 K	0.28
in cyclopentyl methyl ether, 333.05 K	0.289
in cyclopentyl methyl ether, 337.25 K	0.299
in toluene, 305.65 K	0.007
in toluene, 314.15 K	0.011
in toluene, 323.45 K	0.017
in toluene, 326.85 K	0.019
in toluene, 329.05 K	0.021
in toluene, 332.25 K	0.025
in toluene, 333.35 K	0.027

c1ccc2nc3ccccc3nc2c1
Details	solubility (mole fraction)
in 1,4-dioxane, 302.55 K	0.031
in 1,4-dioxane, 305.55 K	0.033
in 1,4-dioxane, 306.05 K	0.034
in 1,4-dioxane, 308.85 K	0.038
in 1,4-dioxane, 312.45 K	0.04
in 1,4-dioxane, 313.55 K	0.043
in 1,4-dioxane, 318.75 K	0.049
in cyclopentyl methyl ether, 301.15 K	0.022
in cyclopentyl methyl ether, 305.75 K	0.026
in cyclopentyl methyl ether, 310.05 K	0.029
in cyclopentyl methyl ether, 314.05 K	0.033
in cyclopentyl methyl ether, 318.25 K	0.039
in cyclopentyl methyl ether, 326.85 K	0.047
in toluene, 282.95 K	0.015
in toluene, 289.85 K	0.02
in toluene, 294.25 K	0.022
in toluene, 297.95 K	0.025
in toluene, 301.35 K	0.027
in toluene, 312.55 K	0.039
in toluene, 318.25 K	0.046
in toluene, 322.35 K	0.053
in toluene, 328.75 K	0.062

O=C(O)c1cccc(O)c1
in 1,4-dioxane
Details	solubility (mole fraction)
305.35 K	0.188
308.85 K	0.194
310.85 K	0.197
312.95 K	0.204
313.05 K	0.203
316.75 K	0.211
318.75 K	0.214
321.45 K	0.219
325.35 K	0.227

O=C(O)c1ccc(O)cc1
in 1,4-dioxane
Details	solubility (mole fraction)
299.65 K	0.08
304.15 K	0.088
311.15 K	0.102
315.75 K	0.111
319.95 K	0.119
324.55 K	0.131

CC(=O)Oc1ccccc1C(=O)O
Details	solubility (mole fraction)
in 1,4-dioxane, 309.35 K	0.164
in 1,4-dioxane, 312.05 K	0.171
in 1,4-dioxane, 315.55 K	0.183
in 1,4-dioxane, 317.65 K	0.191
in 1,4-dioxane, 325.75 K	0.218
in 1,4-dioxane, 330.05 K	0.236
in 1,4-dioxane, 331.45 K	0.246
in 1,4-dioxane, 332.55 K	0.258
in cyclopentyl methyl ether, 313.05 K	0.055
in cyclopentyl methyl ether, 314.25 K	0.057
in cyclopentyl methyl ether, 316.35 K	0.059
in cyclopentyl methyl ether, 319.05 K	0.064
in cyclopentyl methyl ether, 320.55 K	0.068
in cyclopentyl methyl ether, 322.85 K	0.074
in cyclopentyl methyl ether, 325.75 K	0.079
in toluene, 321.25 K	0.008
in toluene, 326.65 K	0.01
in toluene, 327.15 K	0.011
in toluene, 327.85 K	0.011
in toluene, 330.15 K	0.014

O=C(Oc1ccccc1C(=O)O)c1ccccc1O
Details	solubility (mole fraction)
in 1,4-dioxane, 324.45 K	0.263
in 1,4-dioxane, 326.55 K	0.268
in 1,4-dioxane, 330.35 K	0.278
in 1,4-dioxane, 332.55 K	0.284
in 1,4-dioxane, 334.95 K	0.291
in 1,4-dioxane, 337.35 K	0.298
in cyclopentyl methyl ether, 319.75 K	0.148
in cyclopentyl methyl ether, 323.25 K	0.156
in cyclopentyl methyl ether, 323.95 K	0.158
in cyclopentyl methyl ether, 325.65 K	0.16
in cyclopentyl methyl ether, 327.75 K	0.166
in cyclopentyl methyl ether, 329.95 K	0.17
in cyclopentyl methyl ether, 333.95 K	0.176
in toluene, 327.75 K	0.016
in toluene, 329.25 K	0.017
in toluene, 333.45 K	0.019
in toluene, 335.25 K	0.021
in toluene, 335.95 K	0.022

NC(=O)N1c2ccccc2C=Cc2ccccc21
Details	solubility (mole fraction)
in 1,4-dioxane, 310.35 K	0.022
in 1,4-dioxane, 319.95 K	0.032
in 1,4-dioxane, 323.55 K	0.036
in 1,4-dioxane, 327.95 K	0.043
in 1,4-dioxane, 329.75 K	0.047
in 1,4-dioxane, 332.45 K	0.052
in 1,4-dioxane, 332.95 K	0.054
in cyclopentyl methyl ether, 308.15 K	0.002
in cyclopentyl methyl ether, 315.15 K	0.002
in cyclopentyl methyl ether, 323.75 K	0.003
in cyclopentyl methyl ether, 331.45 K	0.004
in cyclopentyl methyl ether, 332.45 K	0.004
in toluene, 301.85 K	0.001
in toluene, 313.95 K	0.002
in toluene, 319.65 K	0.003
in toluene, 325.35 K	0.004
in toluene, 328.55 K	0.004
in toluene, 332.15 K	0.005
in toluene, 335.35 K	0.006

NC(=O)c1ccncc1
in 1,4-dioxane
Details	solubility (mole fraction)
298.55 K	0.014
301.45 K	0.015
303.15 K	0.016
305.05 K	0.017
306.45 K	0.018
308.25 K	0.019
309.15 K	0.02
309.35 K	0.02
312.15 K	0.023
314.05 K	0.024
315.35 K	0.026
319.45 K	0.028
325.55 K	0.036

CC(=O)Nc1ccc(O)cc1
in 1,4-dioxane
Details	solubility (mole fraction)
334.55 K	0.037
335.35 K	0.039
336.65 K	0.042
336.95 K	0.042
337.25 K	0.043
337.85 K	0.045
